# Reference: PMC10328974, “Molecular mechanism of plasmid-borne resistance to sulfonamide antibiotics” (Nature Communications, 2023)
# Tested on: T1, WT E. coli BW25113
# T1 construct: BW25113
# Test: microbe, parasite or virus in culture
# Parameters: agar dilution MIC on MHII agar, lowest concentration inhibiting bacterial growth
# Settings: Escherichia coli, BW25113, 18 h, read-out: MIC (ug/mL)
# Description: The susceptibilities of various E. coli strains to sulfonamide antibiotics were assessed using the agar dilution method[85] with the exception that MHII agar (Sigma) plates were used, as this agar is specifically formulated to have low levels of thymine and thymidine content, both of which are known to antagonize the action of sulfonamides. Antibiotics used were: sulfamethoxazole (SMX) (Sigma-Aldrich), 50 mg/mL in DMSO; sulfadiazine (SDZ) (Sigma-Aldrich), 100 mg/mL in 1 M NaOH; sulfanilamide (SAA) (Sigma-Aldrich), 50 mg/mL in acetone; sulfisoxazole (SOZ) (TCI America) 50 mg/mL on acetone; sulfathiazole (STZ) (Sigma-Aldrich) 50 mg/mL in acetone: sulfapyridine (SPY) (Sigma-Aldrich) 40 mg/mL in 0.5 M NaOH; sulfamerazine (SMRZ) (AK Scientific), 50 mg/mL in DMSO; sulfamethazine (SMZ) (Alfa Aesar), 50 mg/mL in DMSO; sulfameter (SMT) (Sigma-Aldrich) 100 mg/mL in DMSO; sulfacetamide (SAD) (Sigma-Aldrich) 100 mg/mL in DMSO; sulfaquinoxaline (SQX) (Sigma-Aldrich), 50 mg/mL in DMSO; sulfadimethoxine (SDT) (Sigma-Aldrich), 100 mg/m: in 1 N NaOH. Freshly streaked E. coli colonies were resuspended in sterile 0.9% NaCl solution and the turbidity of the suspension adjusted to that of a McFarland Standard of 0.5 using a Sensititre Nephelometer (Thermo Fisher Scientific) calibrated to a McFarland 0.5 BaSO4 standard. The bacterial suspension was diluted 1:10 into a well of a sterile 96-well microtitre plate by pipetting 10 μL into a well containing 90 μL of sterile saline. A 48-pin replicator with 1.5 mm pins was used to deliver the final inoculum of 1 μL (~10^4 […]) onto MHII agar plates containing various concentrations of either SMX, SDZ, SAA, SOZ STZ, SPY, SMRZ, SMZ, SMT, SAD, SQX, or SDT. […] Inoculated sulfa-agar plates were incubated 37 °C for 18 h and the minimum inhibitory concentration (MIC) was determined to be the lowest concentration of drug that inhibited bacterial growth. In all instances, a drug-free control plate was included to ensure bacterial growth. The ∆folP deletion strain, which is auxotrophic for thymidine
row,SMILES,MIC [µg/mL]
1,"Nc1ccc(S(=O)(=O)Nc2nccs2)cc1 [STZ, sulfathiazole]",16
2,"COc1cc(NS(=O)(=O)c2ccc(N)cc2)nc(OC)n1 [SDT, sulfadimethoxine]",256
3,"CC(=O)NS(=O)(=O)c1ccc(N)cc1 [SAD, sulfacetamide]",512
4,"Nc1ccc(S(=O)(=O)Nc2cnc3ccccc3n2)cc1 [SQX, sulfaquinoxaline]",512
5,"Nc1ccc(S(=O)(=O)Nc2ccccn2)cc1 [SPY, sulfapyridine]",64
6,"Cc1ccnc(NS(=O)(=O)c2ccc(N)cc2)n1 [SMRZ, sulfamerazine]",32
7,"Nc1ccc(S(N)(=O)=O)cc1 [SAA, sulfanilamide]",2050
8,"COc1cnc(NS(=O)(=O)c2ccc(N)cc2)nc1 [SMT, sulfameter]",128
9,"Cc1noc(NS(=O)(=O)c2ccc(N)cc2)c1C [SOZ, sulfisoxazole]",32
10,"Cc1cc(C)nc(NS(=O)(=O)c2ccc(N)cc2)n1 [SMZ, sulfamethazine]",256
11,"Nc1ccc(S(=O)(=O)Nc2ncccn2)cc1 [SDZ, sulfadiazine]",32
12,"Cc1cc(NS(=O)(=O)c2ccc(N)cc2)no1 [SMX, sulfamethoxazole]",16

# Biological target: T2, EcDHPS (dihydropteroate synthase) (Escherichia coli, UniProt P0AC13)
# T2 construct: gene folP
# Test: biochemical
# Settings: not given
row,SMILES,Ki [µM]
1,"Cc1cc(NS(=O)(=O)c2ccc(N)cc2)no1 [SMX, sulfamethoxazole]",5.15 ± 1.1

# Biological target: T3, Sul3 (Escherichia coli, UniProt C0HMD9, F177G)
# T3 sequence (C0HMD9 1-242 F177G): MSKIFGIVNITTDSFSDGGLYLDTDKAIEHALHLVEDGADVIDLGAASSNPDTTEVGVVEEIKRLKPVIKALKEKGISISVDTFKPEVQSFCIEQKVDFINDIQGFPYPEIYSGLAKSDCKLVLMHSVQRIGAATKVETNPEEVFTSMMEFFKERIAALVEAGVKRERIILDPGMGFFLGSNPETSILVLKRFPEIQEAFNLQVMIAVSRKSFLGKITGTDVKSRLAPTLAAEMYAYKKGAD
# Test: coupled malachite green DHPS activity assay, competition with pABA
# Type: biochemical
# Settings: read-out: Sulfa (SMX) / Ki
row,SMILES,Ki [µM]
1,"Cc1cc(NS(=O)(=O)c2ccc(N)cc2)no1 [SMX, sulfamethoxazole]",4.16 ± 0.3

# Biological target: T4, EcDHPS (Escherichia coli, UniProt P0AC13, F190W/W92F)
# T4 construct: gene folP; 1-282 amino acids
# T4 sequence (P0AC13 1-282 W92F/F190W): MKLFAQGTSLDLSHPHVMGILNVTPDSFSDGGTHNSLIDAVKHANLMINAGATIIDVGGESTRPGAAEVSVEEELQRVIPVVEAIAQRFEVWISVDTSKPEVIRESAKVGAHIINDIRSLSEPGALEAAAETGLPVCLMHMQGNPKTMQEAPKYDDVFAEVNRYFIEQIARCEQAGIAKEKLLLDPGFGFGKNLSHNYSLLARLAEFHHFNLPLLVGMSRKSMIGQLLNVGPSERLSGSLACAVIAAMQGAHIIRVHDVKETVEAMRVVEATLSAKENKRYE
# Test: intrinsic tryptophan fluorescence titration
# Type: binding
# Settings: not given
row,SMILES,Kd [µM]
1,"Nc1nc(O)c2c(n1)NCC(COP(=O)(O)OP(=O)(O)O)=N2 [DHPP, 6-hydroxymethyl-7,8-dihydropterin pyrophosphate]",8
